pIC50: −log10 of the molar value.

Format in all cases: biochemical
In test [1] the target is EGFR T790M/L858R kinase domain (Homo sapiens (Human), UniProt P00533, L858R/T790M). Briefly: EGFR enzymatic assay, TR-FRET, EGFR T790M/L858R. The protocol:
(§1) Compounds disclosed herein were tested against WT EGFR kinase domain (aa.669-1210, Carna Biosciences, 08-115), EGFR T790M/L858R kinase domain (aa.669-1210, Carna Biosciences, 08-510) and EGFR L858R kinase domain (aa.669-1210, Carna Biosciences, 08-502) in assays based on time-resolved fluorescence-resonance energy transfer methodology. The assay was carried out in 384-well low volume black plate in a reaction mixture containing EGFR kinases, 20 LM for EGFR WT and T790M/L858R, and 125 LM for EGFR L858R), biotin-TK substrate and 0-5 LM compounds in buffer containing 50 mM HEPES pH7.5, 10 mM MgCl2, 1 mM EGTA, 0.01% Brij-35, 2.5 mM DTT, 0.1% BSA. The kinase was incubated with the compounds disclosed herein at room temperature for 120 minutes and the reaction was initiated by the addition of ATP and biotin-TK substrate. After reaction at room temperature for 30 minutes, an equal volume of stop/detection solution was added according to the manufacture's instruction (CisBio Bioassays). The stop/detection solution contained TK-Antibody-Cryptate and Streptavidin-XL665 in buffer containing 25 mM Tris pH7.4, 400 mM KF, 50 mM EDTA, 0.01% BSA, 0.01% Triton X-100. Plates were sealed and incubated at room temperature for 1 hour, and the TR-FRET signals were read on BMG PHERAstar FS instrument. The IC50 of an inhibitor was derived from fitting the % inhibition data at each compound concentration to the four-parameter logistic equation by Graphpad Prism software.

For test [2], the target named is B-Raf (V600E) (Homo sapiens (Human), UniProt P15056, V600E). Kind of test: Raf IC50 assay, TR-FRET, B-Raf (V600E). As to conditions: 0.1 mM ATP; read-out: IC50 BRAF-V600E. The protocol: The enzyme was incubated with the compounds disclosed herein at room temperature for 60 minutes and the reactions were initiated by the addition of ATP and GST-MEK1. After reaction at room temperature for 60 minutes, an equal volume of stop/detection solution was added according to the manufacture's instruction (CisBio Bioassays). […] The IC50 for each compound was derived from fitting the dose-response % inhibition data to the four-parameter logistic model by Graphpad Prism software.
In general terms: Time-resolved FRET reads energy transfer from a long-lived donor to a nearby acceptor.

Test [3] deals with EGFR L858R kinase domain (Homo sapiens (Human), UniProt P00533, L858R). Briefly: EGFR enzymatic assay, TR-FRET, EGFR L858R. The protocol:
as §1

Test [4] deals with WT EGFR kinase domain (Homo sapiens (Human), UniProt P00533). Briefly: EGFR enzymatic assay, TR-FRET, WT EGFR. The procedure:
as §1

Sequence of B-Raf (V600E) (P15056 whole entry V600E): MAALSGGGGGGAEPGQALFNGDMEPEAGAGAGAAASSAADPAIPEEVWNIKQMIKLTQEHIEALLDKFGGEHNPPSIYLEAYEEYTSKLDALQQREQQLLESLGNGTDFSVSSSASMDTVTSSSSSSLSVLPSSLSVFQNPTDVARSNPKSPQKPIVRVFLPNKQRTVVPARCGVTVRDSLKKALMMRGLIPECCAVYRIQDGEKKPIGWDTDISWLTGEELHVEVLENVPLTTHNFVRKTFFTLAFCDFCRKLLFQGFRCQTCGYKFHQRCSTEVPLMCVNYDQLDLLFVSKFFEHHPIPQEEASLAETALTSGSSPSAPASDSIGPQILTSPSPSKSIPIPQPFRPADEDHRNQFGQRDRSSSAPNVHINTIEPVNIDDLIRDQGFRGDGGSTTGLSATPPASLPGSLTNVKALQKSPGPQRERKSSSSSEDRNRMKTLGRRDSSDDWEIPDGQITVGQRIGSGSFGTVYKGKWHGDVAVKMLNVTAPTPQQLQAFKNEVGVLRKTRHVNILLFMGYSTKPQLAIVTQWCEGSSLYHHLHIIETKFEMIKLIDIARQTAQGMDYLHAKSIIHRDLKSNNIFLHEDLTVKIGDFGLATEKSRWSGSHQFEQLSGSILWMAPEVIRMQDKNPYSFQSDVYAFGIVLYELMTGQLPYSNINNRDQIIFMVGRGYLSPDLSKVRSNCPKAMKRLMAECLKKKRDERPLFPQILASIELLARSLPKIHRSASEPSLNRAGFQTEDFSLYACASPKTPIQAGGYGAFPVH
Sequence of EGFR T790M/L858R kinase domain (P00533 669-1210 T790M/L858R): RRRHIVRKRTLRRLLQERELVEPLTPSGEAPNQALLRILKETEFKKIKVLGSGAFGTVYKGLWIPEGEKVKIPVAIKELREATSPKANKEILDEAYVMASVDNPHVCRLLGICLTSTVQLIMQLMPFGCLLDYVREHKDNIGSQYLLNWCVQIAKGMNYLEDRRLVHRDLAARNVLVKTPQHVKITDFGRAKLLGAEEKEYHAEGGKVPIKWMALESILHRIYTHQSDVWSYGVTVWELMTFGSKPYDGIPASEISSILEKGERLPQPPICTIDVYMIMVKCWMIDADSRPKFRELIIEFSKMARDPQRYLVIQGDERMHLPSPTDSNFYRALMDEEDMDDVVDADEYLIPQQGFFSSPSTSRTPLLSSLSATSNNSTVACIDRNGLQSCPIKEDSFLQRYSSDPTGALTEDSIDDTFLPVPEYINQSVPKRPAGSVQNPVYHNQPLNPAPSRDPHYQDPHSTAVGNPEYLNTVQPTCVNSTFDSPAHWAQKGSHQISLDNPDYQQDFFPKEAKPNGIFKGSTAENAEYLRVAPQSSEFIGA
Sequence of WT EGFR kinase domain (P00533 669-1210): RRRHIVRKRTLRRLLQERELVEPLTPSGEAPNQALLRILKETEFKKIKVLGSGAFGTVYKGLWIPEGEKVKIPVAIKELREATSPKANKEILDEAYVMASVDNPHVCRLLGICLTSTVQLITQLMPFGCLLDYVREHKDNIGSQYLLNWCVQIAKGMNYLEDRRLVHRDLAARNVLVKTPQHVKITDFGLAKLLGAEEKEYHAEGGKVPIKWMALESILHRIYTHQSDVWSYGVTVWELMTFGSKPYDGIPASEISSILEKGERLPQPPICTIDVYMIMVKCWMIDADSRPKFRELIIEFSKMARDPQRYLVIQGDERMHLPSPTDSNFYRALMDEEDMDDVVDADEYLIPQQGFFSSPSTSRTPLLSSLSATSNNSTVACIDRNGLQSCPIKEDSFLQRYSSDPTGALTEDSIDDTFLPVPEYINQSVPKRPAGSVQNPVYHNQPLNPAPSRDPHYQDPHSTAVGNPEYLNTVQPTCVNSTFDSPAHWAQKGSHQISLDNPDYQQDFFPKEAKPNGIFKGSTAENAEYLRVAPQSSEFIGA
Sequence of EGFR L858R kinase domain (P00533 669-1210 L858R): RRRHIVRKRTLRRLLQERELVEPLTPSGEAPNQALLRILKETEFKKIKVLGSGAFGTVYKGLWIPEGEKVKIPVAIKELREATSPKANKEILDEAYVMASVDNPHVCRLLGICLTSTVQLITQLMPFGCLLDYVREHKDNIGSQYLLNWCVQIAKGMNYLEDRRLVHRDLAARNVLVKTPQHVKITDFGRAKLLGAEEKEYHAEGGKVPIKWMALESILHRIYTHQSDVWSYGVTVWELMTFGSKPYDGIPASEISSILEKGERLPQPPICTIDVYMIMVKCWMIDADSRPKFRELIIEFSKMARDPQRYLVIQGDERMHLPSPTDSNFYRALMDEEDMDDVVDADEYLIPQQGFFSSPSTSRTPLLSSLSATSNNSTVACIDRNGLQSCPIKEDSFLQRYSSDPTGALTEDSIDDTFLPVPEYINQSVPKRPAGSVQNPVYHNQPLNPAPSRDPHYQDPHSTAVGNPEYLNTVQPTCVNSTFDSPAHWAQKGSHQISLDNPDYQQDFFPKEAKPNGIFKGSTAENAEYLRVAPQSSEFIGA

On to `O=C1CCc2c(Oc3ccc4c(c3)[C@H]3[C@H](NC(=O)c5ccnc(C(F)(F)F)c5)[C@H]3O4)ccnc2N1` [Compound 1.61], for which the negative-log IC50 (pIC50) in test [1] is 6.63; in test [2], 8.82; in test [3] it was 7.12; in test [4], 6.88.
The corresponding values for `CN1CCN(Cc2ccc(C(=O)N[C@@H]3[C@H]4Oc5ccc(Oc6ccnc7c6CCC(=O)N7)cc5[C@@H]34)cc2Br)CC1` [Compound 1.23] are 9.28, 8.27, 9.62 and 8.96.
The corresponding values for `CCN1CCN(Cc2ccc(C(=O)N[C@@H]3[C@H]4Oc5ccc(Oc6ccnc7c6CCC(=O)N7)cc5[C@@H]34)cc2OC)CC1` [Compound 1.73] are 7.47, 8.16, 9.04 and 8.74.
Consider `CNC(=O)c1cc(Oc2ccc3c(c2)[C@H]2[C@H](NC(=O)c4ccc(CN5CCN(C)CC5)c(C(F)(F)F)c4)[C@H]2O3)ccn1` [Compound 2.4], for which the negative-log IC50 (pIC50) was 8.14 in test [1], 7.31 in test [2], 8.39 in test [3] and 8.17 in test [4].
The corresponding values for `O=C1CCc2c(Oc3ccc4c(c3)[C@H]3[C@H](NC(=O)c5cccc(C(F)(F)F)n5)[C@H]3O4)ccnc2N1` [Compound 1.63] are 6.63, 8.60, 6.53 and 5.94.
Regarding `CCN1CCC(Cc2ccc(C(=O)N[C@@H]3[C@H]4Oc5ccc(Oc6ccnc7c6CCC(=O)N7)cc5[C@@H]34)cc2C(F)(F)F)CC1` [Compound 1.74, 4-((1-ethylpiperidin-4-yl)methyl)-N-((1S,1aS,6bS)-5-((7-oxo-5,6,7,8-tetrahydro-1,8-naphthyridin-4-yl)oxy)-1a,6b-dihydro-1H-cyclopropa[b]benzofuran-1-yl)-3-(trifluoromethyl)benzamide], the negative-log IC50 (pIC50) in test [1] is 9.70; in test [2] it was 8.00; in test [3] it was 9.77; in test [4], 9.13.
The corresponding values for `Cc1cc(Oc2ccnc3c2CCC(=O)N3)cc2c1OC1C(NC(=O)c3ccc(CN4CCN(C)CC4)c(C(F)(F)F)c3)C21` (centres unmarked) [Compound 1.56] are 9.33, 7.68, 9.40 and 8.60.
The corresponding values for `CN(C)[C@@H]1CCCN(c2ccc(C(=O)N[C@@H]3[C@H]4Oc5ccc(Oc6ccnc7c6CCC(=O)N7)cc5[C@@H]34)cc2C(F)(F)F)C1` [Compound 1.48] are 8.28, 7.80, 9.04 and 8.77.
The corresponding values for `CCN1CCC(Oc2ccc(C(=O)N[C@@H]3[C@H]4Oc5ccc(Oc6ccnc7c6CCC(=O)N7)cc5[C@@H]34)cc2C(F)(F)F)CC1` [Compound 1.64] are 9.34, 7.92, over 9.60 and 8.96.
For the compound `CCN1CCN(Cc2ccc(C(=O)N[C@@H]3[C@H]4Oc5ccc(Oc6ccnc7c6CCC(=O)N7)cc5[C@@H]34)cc2Cl)CC1` [Compound 1.18], the pIC50 in test [2] is 8.24.
`O=C1CCc2c(Oc3ccc4c(c3)[C@H]3[C@H](NC(=O)Cc5cccc(C(F)(F)F)c5)[C@H]3O4)ccnc2N1` [Compound 1.60]: the pIC50 is 5.59 in test [1], 8.82 in test [2], 6.02 in test [3] and 5.46 in test [4].
For `CN(C)C1CCN(c2ccc(C(=O)N[C@@H]3[C@H]4Oc5ccc(Oc6ccnc7c6CCC(=O)N7)cc5[C@@H]34)cc2C(F)(F)F)CC1` [Compound 1.71] the same measures were 7.68, 8.00, 8.68 and 8.57.
For `CN1CCN(Cc2ccc(C(=O)N[C@@H]3[C@H]4Oc5ccc(Oc6ccnc7c6CCC(=O)N7)cc5[C@@H]34)cc2Cl)CC1` [Compound 1.22] the same measures were 9.33, 8.32, 9.64 and 9.10.
For `CN1CCN(Cc2ccc(C(=O)N[C@H]3[C@@H]4Oc5ccc(Oc6ccnc7c6CCC(=O)N7)cc5[C@H]34)cc2C(F)(F)F)CC1` [Compound 1.34] the same measures were 6.92, 7.96, 7.54 and 6.60.
In the case of `CCCCCCCCCCCC(=O)N[C@@H]1[C@H]2Oc3ccc(Oc4ccnc5c4CCC(=O)N5)cc3[C@@H]12` [Compound 1.28], the pIC50 in test [1] was 6.05; in test [3], 6.54; in test [4] it was 6.09.
`O=C1CCc2c(Oc3ccc4c(c3)[C@H]3[C@H](NC(=O)c5ccc(CN6CCN(CC(F)(F)F)CC6)c(C(F)(F)F)c5)[C@H]3O4)ccnc2N1` [Compound 1.2]: the pIC50 in test [1] was 6.09; in test [2], 7.57; in test [3], 6.53; in test [4] it was 6.60.
On to `CCCCCCCC(=O)N[C@@H]1[C@H]2Oc3ccc(Oc4ccnc5c4CCC(=O)N5)cc3[C@@H]12` [Compound 1.69], for which the negative logarithm of the IC50 (pIC50) in test [1] is 6.11; in test [2], 8.70; in test [3], 6.94; in test [4], 6.93.
The corresponding values for `CCCCCCCCCC(=O)N[C@@H]1[C@H]2Oc3ccc(Oc4ccnc5c4CCC(=O)N5)cc3[C@@H]12` [Compound 1.70] are 5.89, 7.62, 6.64 and 6.20.
Consider `CCN1CCN(Cc2ccc(C(=O)N[C@@H]3[C@H]4Oc5ccc(Oc6ccnc7c6CCC(=O)N7)cc5[C@@H]34)cc2OC(F)(F)F)CC1` [Compound 1.78, 4-((4-ethylpiperazin-1-yl)methyl)-N-((1S,1aS,6bS)-5-((7-oxo-5,6,7,8-tetrahydro-1,8-naphthyridin-4-yl)oxy)-1a,6b-dihydro-1H-cyclopropa[b]benzofuran-1-yl)-3-(trifluoromethoxy)benzamide], for which the pIC50 in test [1] is 8.10; in test [2], 8.00; in test [3], 9.10; in test [4], 8.92.
With `CCN1CCN(Cc2cc(F)cc(C(=O)N[C@@H]3[C@H]4Oc5ccc(Oc6ccnc7c6CCC(=O)N7)cc5[C@@H]34)c2)CC1` [Compound 1.6], in test [2], the pIC50 is 8.77.
Turning to `CCN1CCC(=Cc2ccc(C(=O)N[C@@H]3[C@H]4Oc5ccc(Oc6ccnc7c6CCC(=O)N7)cc5[C@@H]34)cc2C(F)(F)F)CC1` [Compound 1.75, 4-((1-ethylpiperidin-4-ylidene)methyl)-N-((1S,1aS,6bS)-5-((7-oxo-5,6,7,8-tetrahydro-1,8-naphthyridin-4-yl)oxy)-1a,6b-dihydro-1H-cyclopropa[b]benzofuran-1-yl)-3-(trifluoromethyl)benzamide], the negative-log IC50 (pIC50) is 9.74 in test [1], 7.68 in test [2], 9.59 in test [3] and 8.89 in test [4].
For `CN1CCN(Cc2ccc(C(=O)N[C@@H]3[C@H]4Oc5ccc(Oc6ccnc7c6CCC(=O)N7)cc5[C@@H]34)cc2)CC1` [Compound 1.11] the same measures were 7.74, 8.23, 9.24 and 8.89.
The corresponding values for `CCN1CCN(Cc2ccc(C(=O)N[C@@H]3[C@H]4Oc5ccc(Oc6ccnc(N)c6)cc5[C@@H]34)cc2C(F)(F)F)CC1` [Compound 2.5, N-((1S,1aS,6bS)-5-((2-aminopyridin-4-yl)oxy)-1a,6b-dihydro-1H-cyclopropa[b]benzofuran-1-yl)-4-((4-ethylpiperazin-1-yl)methyl)-3-(trifluoromethyl)benzamide] are 9.09, 7.24, 9.33 and 8.39.
As for `CN1C(C)(C)CC(Oc2ccc(C(=O)N[C@@H]3[C@H]4Oc5ccc(Oc6ccnc7c6CCC(=O)N7)cc5[C@@H]34)cc2C(F)(F)F)CC1(C)C` [Compound 1.77, N-((1S,1aS,6bS)-5-((7-oxo-5,6,7,8-tetrahydro-1,8-naphthyridin-4-yl)oxy)-1a,6b-dihydro-1H-cyclopropa[b]benzofuran-1-yl)-4-((1,2,2,6,6-pentamethylpiperidin-4-yl)oxy)-3-(trifluoromethyl)benzamide], in test [2], the negative-log IC50 (pIC50) was 7.89.
For the compound `C[C@@H]1CN(Cc2ccc(C(=O)N[C@@H]3[C@H]4Oc5ccc(Oc6ccnc7c6CCC(=O)N7)cc5[C@@H]34)cc2C(F)(F)F)CCN1` [Compound 1.30], the pIC50 in test [1] is 8.57; in test [3] it was 9.34; in test [4] it was 9.16.

By pIC50 is commonly meant −log10 of the IC50, conventionally taken in molar units.

The values above are taken from US9670231B2, “Fused tricyclic amide compounds as multiple kinase inhibitors” (BEIGENE, LTD., priority 2013, dated 2017).
